# Experimental data from paper PMC3458005, “Involvement of the Azotobacter vinelandii Rhodanese-Like Protein RhdA in the Glutathione Regeneration Pathway” (PLoS ONE, 2012).
# Columns and labels:
# [1] = system: N[C@@H](CCC(=O)N[C@@H](C[S])C(=O)NCC(=O)O)C(=O)O; assay: purified protein; conditions: pH 7.4; 25.0 °C
# RhdA = target: T1, RhdA (Azotobacter vinelandii, UniProt P52197); assay: intrinsic tryptophan fluorescence titration; assay type: binding
# T1 construct: His-tagged (pQER1) from E. coli BL21[pRep4], Ni-NTA purified; cyanide-treated (sulfane sulfur-deprived); only cysteine Cys230
# T1 sequence (P52197 whole entry): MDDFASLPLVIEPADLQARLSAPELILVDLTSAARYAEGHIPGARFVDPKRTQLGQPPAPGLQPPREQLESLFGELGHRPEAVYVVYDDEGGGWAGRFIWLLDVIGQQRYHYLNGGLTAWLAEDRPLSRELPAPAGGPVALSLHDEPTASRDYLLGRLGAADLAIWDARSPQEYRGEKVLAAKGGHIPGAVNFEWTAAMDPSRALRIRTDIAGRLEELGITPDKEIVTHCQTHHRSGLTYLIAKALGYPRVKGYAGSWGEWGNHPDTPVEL
Compound,Km [1],Kd (RhdA)
RhdA (Azotobacter vinelandii),560 ± 110 µM,–
"N[C@@H](CCC(=O)N[C@@H](C[S])C(=O)NCC(=O)O)C(=O)O [GS^•, glutathione thiyl radical]",–,~11 µM
O=S(O)(O)=S [thiosulfate],–,0.76 ± 0.01 µM
